# Assays:
# [1] = in vivo; cited from earlier work
# [2] = system: coronary-perfused canine left ventricular (LV) preparations; experiment: Electrophysiology in isolated coronary-perfused canine left ventricular preparations; settings: current in vitro investigation
# Experimental: Experiments were performed using isolated coronary-perfused canine right atrial (RA) and left ventricular (LV) preparations (≈3×1.5×1 cm). Isolation and perfusion of the preparations were as previously described.^9, 15, 16 Briefly, preparations were dissected from hearts removed from anesthetized (sodium pentobarbital) adult mongrel dogs (20-30 kg). Unfolded RA with attached rim of the right ventricle was cannulated and perfused with cold cardioplegic solution (4-8° C.) through the ostium of the right coronary artery; the LV wedge was perfused through a diagonal branch of the left anterior descending coronary artery. Unperfused tissue was removed with a razor blade. […]
# Transmembrane action potential (AP) recordings were obtained using floating glass microelectrodes at a sampling rate of 40 kHz. A pseudo-electrocardiogram (ECG) was recorded using two electrodes consisting of Ag/AgCl half cells placed in the Tyrode's solution bathing the preparation, 1.0 to 1.5 cm from the two opposite sides of the atrial or ventricular coronary-perfused preparations. […] Diastolic threshold of excitation (DTE) was determined by increasing stimulus intensity in 0.01 mA steps. Effective refractory period (ERP) was measured by delivering premature stimuli at progressively shorter S1-S2 intervals after every 10 basic beats at a pacing cycle length (CL) of 500 ms (5 ms steps; 2 times DTE). […]
compound,measurement,setting,value
"CCCCc1oc2ccc(NS(C)(=O)=O)cc2c1C(=O)c1ccc(OCCCN(CCCC)CCCC)cc1 [Dronedarone, N-(2-Butyl-3-(p-(3-(dibutylamino)propoxy)benzoyl)-5-benzofuranyl)methanesulfonamide]",Half-life of elimination,[1],about 24 hours
same,Prolongation of ventricular ERP,[2],4%
